# Experiments:
# [1] = system: CDR1 (B9J08_000164) and CDR4-1 (B9J08_000479); assay: RT-qPCR of efflux gene expression; format: cell-based, Candida auris; settings: azoffluxin alone, 3 hours
# Text: FIGS. 3A-3B, and 4A-4B illustrate azoffluxin increases fluconazole (FLC) bioavailability by inhibiting Cdr1-mediated efflux in C. auris, as described above. FIG. 3A depicts the relative abundance of specific sterols determined in C. auris after an 18-hour treatment with the respective compounds (⋅ indicates combo treatment concentrations) using LC-MS. Values are plotted relative to the internal standard of cholesterol and error bars indicate standard deviation between technical triplicates. Significance was determined by an unpaired student t-test of each condition to untreated, (*) indicates a p-value<0.05 and (**) indicates a p-value<0.01. FIG. 3B depicts the intracellular concentrations of FLC and azoffluxin measured after treatment for 1 hour (conditions as in FIG. 3A) Error bars indicate standard deviation between technical triplicates. Significance was determined by an unpaired student t-test, (**) indicates a p-value<0.01. FIG. 4A depicts the quantified relative expression of a panel of putative efflux pumps in C. auris Ci6684. Expression of CDR1 (B9J08_000164), MDR1 (B9J08_003981), CDR4-1 (B9J08_000479), CDR4-2 (B9J08_002451), SNQ2-1 (B9J08_001125), and SNQ2-2 (B9J08_004452) was measured by RT-qPCR. […] FIG. 4B depicts expression of CDR1 (B9J08_000164) and CDR4-1 (B9J08_000479) measured by quantitative real-time PCR (RT-qPCR). […]
# C. auris = assay: Dose-response of other antifungal compounds with or without 50 μM azoffluxin; format: cell-based, Candida auris; settings: 48 hours, YPD
# Procedure: FIGS. 7A and 7B illustrates that azoffluxin potentiates intracellular acting compounds against C. auris, to a similar degree as deletion of CDR1. […] Cells were then imaged on the DIC and DsRed channels at equivalent exposure times as those in FIG. 5A. FIG. 7B depicts a dose response assays conducted with a C. auris parental strain in the absence and presence of 50 μM azoffluxin where indicated, as well as with a strain with the efflux pump gene CDR1 deleted. Indicated compounds were titered in a two-fold dilution on the x-axis. Growth was measured after 48 hours in YPD using OD600 and normalized to a no drug control well (see color bar).
# Compound potency was assessed alone by dose response assays or in combination with another compound by dose-response matrixes in 96-well plates, or 384-well, flat-bottom, microtiter plates (Corning) as previously described. Plates were incubated at 30° C. for the indicated time period. Growth was quantified by measuring OD600 and corrected for medium background. All strains were assessed in biological duplicate experiments with technical duplicates. Growth was normalized to untreated controls and plotted as a heat map using Java TreeView 1.1.6r4. For dose-response matrixes fractional inhibitory concentration index at 90% growth inhibition (FICI90) was calculated as previously described. […]
# [2] = Stability and activity in plasma; format: in vitro ADME
# MDR1 (ABCB1) = target: T1, MDR1 (ABCB1) (Homo sapiens, UniProt P08183); assay: Rhodamine 6G accumulation in MDR1-overexpressing HEK293 cells (flow cytometry); format: cell-based, mammalian
# T1 construct: expressed in transfected cells; host or cells: HEK293
# Procedure: (§1) P-gp overexpressing HEK293 cell lines were used to determine if azoffluxin treatment leads to a greater accumulation of fluorescent substrates (MFI) as determined by flow cytometry.
# (§2) MDR1 (ABCB1) and MRP1 (ABCC1) was assessed using the fluorescent dyes rhodamine 6G (0.5 μg/mL) and Calcein AM (2.5 μg/mL), for each pump respectively, and the known inhibitor controls tariquidar (60 nM) and MK571 (30 μM) for each pump respectively. Listed data is shown by FIG. 12E (R6G) and FIG. 12F (Cal).
# MRP1 (ABCC1) = target: T2, MRP1 (ABCC1) (Homo sapiens, UniProt P33527); assay: Calcein AM accumulation in MRP1-overexpressing HEK293 cells (flow cytometry); format: cell-based, mammalian; settings: Calcein AM 2.5 μg/mL
# T2 construct: expressed in transfected cells; host or cells: HEK293
# Procedure: as §1, §2
# [3] = system: HEK293 cancer cells that overexpress the efflux pump MDR1; assay: Doxorubicin cytotoxicity with azoffluxin; format: cell-based; settings: dose response and single concentration
# Text: Dose response (FIG. 23A) and single concentration (FIG. 23B).
# T2 sequence (P33527 whole entry): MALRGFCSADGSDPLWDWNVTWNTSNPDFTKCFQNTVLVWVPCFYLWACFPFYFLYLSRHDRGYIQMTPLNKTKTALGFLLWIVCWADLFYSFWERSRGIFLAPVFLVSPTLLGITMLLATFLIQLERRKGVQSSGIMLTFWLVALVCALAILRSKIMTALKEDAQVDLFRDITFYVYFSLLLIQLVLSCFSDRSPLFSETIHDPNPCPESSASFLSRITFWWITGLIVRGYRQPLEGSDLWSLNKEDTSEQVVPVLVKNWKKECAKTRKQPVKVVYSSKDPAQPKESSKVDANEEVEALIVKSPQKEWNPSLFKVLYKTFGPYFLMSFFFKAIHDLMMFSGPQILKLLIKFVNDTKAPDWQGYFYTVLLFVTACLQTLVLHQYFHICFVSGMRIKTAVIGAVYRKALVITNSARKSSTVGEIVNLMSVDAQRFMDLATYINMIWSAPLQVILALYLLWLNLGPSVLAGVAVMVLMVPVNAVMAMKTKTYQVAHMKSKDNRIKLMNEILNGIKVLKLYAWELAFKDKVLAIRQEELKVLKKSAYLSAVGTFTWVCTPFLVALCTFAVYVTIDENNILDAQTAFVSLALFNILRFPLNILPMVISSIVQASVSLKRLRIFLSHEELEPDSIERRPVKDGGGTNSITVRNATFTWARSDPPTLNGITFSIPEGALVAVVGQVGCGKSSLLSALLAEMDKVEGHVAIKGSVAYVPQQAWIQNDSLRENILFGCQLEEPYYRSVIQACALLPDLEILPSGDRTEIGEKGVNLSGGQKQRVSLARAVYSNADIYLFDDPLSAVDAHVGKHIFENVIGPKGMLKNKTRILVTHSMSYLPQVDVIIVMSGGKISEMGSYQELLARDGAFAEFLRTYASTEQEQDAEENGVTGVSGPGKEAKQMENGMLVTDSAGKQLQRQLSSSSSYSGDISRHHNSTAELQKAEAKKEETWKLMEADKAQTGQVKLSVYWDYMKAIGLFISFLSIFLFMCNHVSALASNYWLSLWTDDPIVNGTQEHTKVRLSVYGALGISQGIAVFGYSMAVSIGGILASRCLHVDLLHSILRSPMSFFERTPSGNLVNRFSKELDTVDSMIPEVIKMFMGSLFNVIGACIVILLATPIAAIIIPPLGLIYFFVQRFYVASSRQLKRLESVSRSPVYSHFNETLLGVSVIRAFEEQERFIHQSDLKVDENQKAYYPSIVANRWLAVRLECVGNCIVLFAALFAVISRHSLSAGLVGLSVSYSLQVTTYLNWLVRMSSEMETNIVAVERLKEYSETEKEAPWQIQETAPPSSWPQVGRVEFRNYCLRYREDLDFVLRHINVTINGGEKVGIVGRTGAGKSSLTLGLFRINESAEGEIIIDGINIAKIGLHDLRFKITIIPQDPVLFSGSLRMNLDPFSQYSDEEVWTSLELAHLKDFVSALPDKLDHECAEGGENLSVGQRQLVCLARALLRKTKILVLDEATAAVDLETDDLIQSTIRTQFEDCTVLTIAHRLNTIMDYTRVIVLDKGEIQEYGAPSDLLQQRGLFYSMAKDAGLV
# T1 sequence (P08183 whole entry): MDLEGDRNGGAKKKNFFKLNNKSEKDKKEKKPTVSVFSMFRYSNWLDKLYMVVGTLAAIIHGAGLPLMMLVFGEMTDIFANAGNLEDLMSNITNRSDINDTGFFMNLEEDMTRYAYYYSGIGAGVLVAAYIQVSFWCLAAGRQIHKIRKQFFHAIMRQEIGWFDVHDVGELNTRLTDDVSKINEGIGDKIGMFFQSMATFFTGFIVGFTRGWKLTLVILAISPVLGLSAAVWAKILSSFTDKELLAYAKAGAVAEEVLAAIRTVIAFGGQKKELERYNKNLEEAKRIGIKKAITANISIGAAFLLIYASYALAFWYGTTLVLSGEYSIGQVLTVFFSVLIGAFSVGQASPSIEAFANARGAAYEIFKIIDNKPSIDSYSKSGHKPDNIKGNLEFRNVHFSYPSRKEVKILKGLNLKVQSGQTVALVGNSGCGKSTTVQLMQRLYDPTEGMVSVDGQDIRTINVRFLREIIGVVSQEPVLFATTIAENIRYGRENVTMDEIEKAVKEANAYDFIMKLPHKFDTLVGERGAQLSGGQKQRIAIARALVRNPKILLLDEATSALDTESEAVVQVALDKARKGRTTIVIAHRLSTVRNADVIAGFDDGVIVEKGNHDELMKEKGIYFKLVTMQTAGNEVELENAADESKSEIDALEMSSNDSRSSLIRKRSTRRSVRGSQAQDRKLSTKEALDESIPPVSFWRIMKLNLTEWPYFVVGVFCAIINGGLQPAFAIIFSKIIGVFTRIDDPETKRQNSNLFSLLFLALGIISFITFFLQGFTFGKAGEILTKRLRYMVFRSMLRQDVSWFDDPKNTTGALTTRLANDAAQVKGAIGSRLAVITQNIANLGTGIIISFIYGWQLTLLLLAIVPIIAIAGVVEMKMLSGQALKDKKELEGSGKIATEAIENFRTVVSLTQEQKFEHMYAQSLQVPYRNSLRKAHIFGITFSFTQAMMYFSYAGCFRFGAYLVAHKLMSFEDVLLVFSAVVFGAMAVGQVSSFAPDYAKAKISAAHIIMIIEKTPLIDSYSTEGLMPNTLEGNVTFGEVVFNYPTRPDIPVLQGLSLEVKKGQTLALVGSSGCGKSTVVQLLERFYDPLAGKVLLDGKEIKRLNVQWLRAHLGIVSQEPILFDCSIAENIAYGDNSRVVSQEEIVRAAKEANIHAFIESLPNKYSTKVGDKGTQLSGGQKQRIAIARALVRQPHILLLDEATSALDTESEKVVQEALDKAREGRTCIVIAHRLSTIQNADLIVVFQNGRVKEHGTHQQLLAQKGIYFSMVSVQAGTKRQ
compound,measurement,setting,value
C=C(C)C[C@@H](O)COc1cc2c(cc1C1(c3cc4c(cc3OC[C@H](O)CC(=C)C)OCO4)C(=O)Nc3cc(F)ccc31)OCO2 [CMLD012336],CDR1 and CDR4-1 transcript levels,[1],concentration-dependent increase
same,sensitivity to caspofungin and amphotericin B,C. auris,no impact on sensitivity
same,"sensitization to gepinacin, cerulenin, and cycloheximide",C. auris,to the same extent as CDR1 deletion
same,stability in plasma,[2],stable and retains activity in plasma
same,dye accumulation in control cDNA cells,MDR1 (ABCB1),no effect
same,increase in calcein AM (Cal),MRP1 (ABCC1),2.5 fold
same,cytotoxicity of doxorubicin,[3],enhances cytotoxicity of doxorubicin
